For this data set the following is noted: nicotine 1.25 mg/kg (1 female) and 1.0 mg/kg (3 females) single i.v. The protocol:
One control group of animals received a single i.v. dose of the vehicle at 5 mL/kg. Ten rats (5 males and 5 females) were dosed per group. […] One female received a single i.v. dose of 1.25 mg/kg, and 3 females received a single i.v. dose of 1.0 mg/kg.
Following the tolerability study, an additional group was added to the study. […] All animals were observed daily. Body weight and food consumption was measured daily, with any abnormal observations noted. Average daily body weights and food consumption was tabulated with standard deviation calculated.

With `CN1CCCC1c1cccnc1.O=C(O)C(O)C(O)C(=O)O` (single isomer, unassigned; (-)) [Nicotine, (−) Nicotine hydrogen tartrate, reference compound], the “clinical signs in tolerability study” value is “experienced severe tremors upon completion of dosing, but all returned to normal by 20 minutes post dose”.

The values are drawn from patent US20120196899A1, “METHODS AND PRODUCTS FOR TREATING INFLAMMATION” (Rock Creek Pharmaceuticals, Inc., priority 2010, published 2012).
